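Tested at 5 concentrations; 48 h exposure; 96-well plates; endpoints linearly interpolated, else capped at highest concentration. GI50 is the concentration that inhibits growth by half. TGI is the concentration that stops growth completely.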
How the values were obtained:
Assay in all cases: NCI anticancer screen, dose series, 48 h
M19-MEL melanoma = test system: M19-MEL melanoma
DMS 273 small cell lung = test system: DMS 273 small cell lung
SNB-78 CNS = test system: SNB-78 CNS
DMS 114 small cell lung = test system: DMS 114 small cell lung
KM20L2 colon = test system: KM20L2 colon
RXF-631 renal = test system: RXF-631 renal
LXFL 529 NSCLC = test system: LXFL 529 NSCLC
DLD-1 colon = test system: DLD-1 colon
MDA-N = test system: MDA-N
SN12K1 renal = test system: SN12K1 renal

Compound	TGI (M19-MEL melanoma)	TGI (DMS 273 small cell lung)	TGI (SNB-78 CNS)	TGI (DMS 114 small cell lung)	TGI (KM20L2 colon)	TGI (RXF-631 renal)	TGI (LXFL 529 NSCLC)	TGI (DLD-1 colon)	also measured
O=C1CC(O)CC(=O)C1=C(O)CCCCCCCCCCc1ccccc1 (stereo unspecified)	> 100 µM	> 100 µM	> 100 µM	> 100 µM	> 100 µM	> 100 µM	> 100 µM	> 100 µM	
O=C(O)CCN(CCCCN(CCC(=O)O)CCC(=O)O)CCC(=O)O	> 100 µM	> 100 µM		> 100 µM			> 100 µM	> 100 µM	
C=C(C)C(O)CCC1(C)C=Cc2c(c(C)cc3c2[nH]c2ccccc23)O1 (stereo unspecified)	25 µM		25 µM	25 µM	7.57 µM		25 µM	18.8 µM	TGI (MDA-N): 17.3 µM
COc1ccc(-c2cc3c(c4cc(OC)ccc24)C(=O)OC3=O)cc1									TGI (MDA-N): > 100 µM
CCc1ccccc1NC(=O)C1=C(C)NC(C)=C(C(=O)Nc2ccccc2CC)C1c1ccccc1Cl	> 100 µM		> 100 µM	> 100 µM	> 100 µM		> 100 µM	> 100 µM	
O.O.[NH-]C1(C(=O)O)CCCC1.[NH-]C1(C(=O)O)CCCC1.[Ni+2]									GI50 (MDA-N): > 100 µM; TGI (MDA-N): > 100 µM
N#CC1(C#N)C2(c3ccccc3)OC(c3ccccc3)(c3cc4ccccc4cc32)C1(C#N)C#N		32 µM		22.2 µM	26.4 µM		3.14 µM	22.3 µM	TGI (MDA-N): 34.4 µM
O=C(NCCCCNc1cccccc1=O)OCc1ccccc1	> 100 µM	> 100 µM	> 100 µM	> 100 µM	> 100 µM	> 100 µM	> 100 µM	> 100 µM	
COc1cc(Br)c(C=Nc2cccc3cc(OC)c(OC)cc23)cc1OC	> 100 µM	> 100 µM	> 100 µM	50.4 µM	> 100 µM	> 100 µM	> 100 µM	> 100 µM	
CS(=O)(=O)OC1CCC2(C#N)CCC1C2=O (stereo unspecified)	> 100 µM	> 100 µM	> 100 µM		> 100 µM	> 100 µM	> 100 µM	> 100 µM	
C=C1C(=O)O[C@@H]2C[C@@H](C)[C@@H]3C=CC(=O)[C@@]3(C)[C@@H](O)[C@H]12	20.6 µM	4.48 µM		3.84 µM	3.87 µM		1.68 µM	1.49 µM	TGI (MDA-N): 5.66 µM
N.N.N.N.[Co+3].[N-]=[N+]=[N-].[N-]=[N+]=[N-].[N-]=[N+]=[N-]		> 100 µM	> 100 µM		> 100 µM		> 100 µM	> 100 µM	GI50 (DMS 273 small cell lung): > 100 µM; GI50 (SNB-78 CNS): > 100 µM; GI50 (KM20L2 colon): > 100 µM; GI50 (LXFL 529 NSCLC): > 100 µM; GI50 (DLD-1 colon): > 100 µM
C=CCOc1cc(NC(=S)c2ccoc2C)ccc1OC									TGI (MDA-N): > 100 µM
NC(=O)C(=O)N/N=C1\C(=O)N(c2ccc(Cl)cc2Cl)C(=O)C1C(=O)Nc1ccc(Cl)cc1Cl (stereo unspecified)	> 100 µM	> 100 µM	> 100 µM	> 100 µM	> 100 µM		> 100 µM	> 100 µM	
CC1=C(c2ccccc2)C(c2ccccc2)=C(c2ccccc2)C2(c3ccccc3)C(=O)C(C)CN12 (stereo unspecified)	> 100 µM	> 100 µM			> 100 µM		> 100 µM	> 100 µM	
CCN(CC)c1c(C(=O)/C=C/c2ccc(Cl)cc2)c(-c2ccccc2)nn(C)c1=O	3.14 µM	3.41 µM	5.93 µM	3.76 µM	7.84 µM	3.99 µM	3.42 µM	3.99 µM	
CCCCCCCCCCCc1nnc(N)o1	> 100 µM	> 100 µM	> 100 µM		> 100 µM	> 100 µM	> 100 µM	> 100 µM	
CC(C)=CC1C[C@H](C2CC=C3C2(C)CCC2[C@@]3(C)C(=O)CC3[C@]2(C)C=CC(=O)[C@]3(C)CO)CO1 (stereo partly specified)	16.7 µM	18.4 µM	48.4 µM	15.9 µM	19.1 µM		12.1 µM		
O=C(O)CCCSC(=O)Nc1ccc(N=Nc2ccccc2)cc1		> 100 µM	> 100 µM	> 100 µM	> 100 µM		> 100 µM		
COc1ccc(C23C(=O)c4ccccc4N2O[C@H]2C(=O)N(c4ccccc4)C(=O)[C@H]23)cc1 (stereo partly specified)	> 100 µM	> 100 µM	> 100 µM	> 100 µM	> 100 µM	> 100 µM	> 100 µM	> 100 µM	
C=CCNC(=O)N(CCCCC(NC(C)=O)C(=O)NCc1ccccc1)Cc1ccccc1 (stereo unspecified)	> 100 µM	> 100 µM			> 100 µM	> 100 µM	> 100 µM		
CC(C)Cn1cnc2c(SCc3ccc(Cl)cc3Cl)nc(N)nc21									TGI (MDA-N): > 100 µM

Compound	TGI (M19-MEL melanoma)	TGI (DMS 273 small cell lung)	TGI (SNB-78 CNS)	TGI (DMS 114 small cell lung)	TGI (KM20L2 colon)	TGI (RXF-631 renal)	TGI (LXFL 529 NSCLC)	TGI (DLD-1 colon)	also measured
COC(=O)CC1C[C@H](C#N)N(C(=O)c2ccccc2)C[C@@H]1CC[N+](=O)[O-] (stereo partly specified)	> 100 µM	> 100 µM	> 100 µM		> 100 µM		> 100 µM	> 100 µM	
C/C(=N\NC(=S)N1CC2CCC(CC2)C1)c1nccs1	1.8 µM	4.93 µM	41.8 µM	0.218 µM	1.35 µM	17.6 µM	15.8 µM	17.3 µM	TGI (SN12K1 renal): 15.2 µM
CN(/N=C/c1cccc2cccnc12)c1ccc([N+](=O)[O-])cc1[N+](=O)[O-]	> 100 µM	> 55.7 µM	61.6 µM	> 61.9 µM	> 100 µM	> 100 µM	> 100 µM	> 100 µM	TGI (MDA-N): > 100 µM
O=C(O)C1=C(O)C(C(=O)O)C23CCCCCCCCCCC12C(C(=O)O)C(O)=C3C(=O)O (stereo unspecified)	> 100 µM	> 100 µM		> 100 µM			> 100 µM	> 100 µM	
C[C@]12CC[C@@H]3c4ccc(OC(=O)N(CCCl)CCCl)cc4CC[C@H]3[C@@H]1CC[C@@H]2O	0.254 µM	24.2 µM	17.3 µM					1.05 µM	TGI (SN12K1 renal): 0.276 µM
CSC(=Nc1nnc(-c2ccc([N+](=O)[O-])cc2)s1)SC	> 100 µM	> 100 µM	60.9 µM	> 82 µM	> 100 µM		> 100 µM	> 100 µM	TGI (MDA-N): > 100 µM
Cc1nnn[n-]1.N.N.N.N.N.[Cl-].[Co+3]		> 100 µM			> 100 µM		> 100 µM	> 100 µM	GI50 (DMS 273 small cell lung): > 100 µM; GI50 (KM20L2 colon): > 100 µM; GI50 (LXFL 529 NSCLC): > 100 µM; GI50 (DLD-1 colon): > 100 µM
CN(O)C(=O)SCC(NC(=O)CCC(N)C(=O)O)C(=O)NCC(=O)O (stereo unspecified)	> 2000 µM	> 2000 µM	> 2 µM	> 2000 µM	> 2000 µM		> 2000 µM	> 2000 µM	GI50 (M19-MEL melanoma): > 2000 µM; GI50 (DMS 273 small cell lung): > 2000 µM; GI50 (DMS 114 small cell lung): > 2000 µM; GI50 (KM20L2 colon): > 2000 µM; GI50 (LXFL 529 NSCLC): > 2000 µM; GI50 (DLD-1 colon): > 2000 µM
CCOC(=O)C12CCCC1(O)N(NC(=O)OC(C)(C)C)C(C)=C2C(=O)OC (stereo unspecified)	> 100 µM	> 100 µM	> 100 µM	> 100 µM	> 100 µM	> 100 µM	> 100 µM	> 100 µM	
COC1=C(N)C(=O)c2nc(C)ccc2C1=O	0.715 µM	3.84 µM	14.1 µM	3.53 µM	5.07 µM		6.21 µM	5.31 µM	
CC1(C)O[C@H]2[C@H](O)C[C@](O)(CO)C[C@H]2O1	> 100 µM	> 100 µM	> 100 µM	> 100 µM	> 100 µM	> 100 µM	> 100 µM	> 100 µM	
O=[N+]([O-])c1ccc(C[P+](c2ccccc2)(c2ccccc2)c2ccccc2)cc1	81.2 µM	> 100 µM		> 100 µM	> 100 µM		> 100 µM	> 100 µM	
O=C(COc1ccc(Cl)cc1)N1N=C(c2ccc(Cl)cc2)CC1(O)c1ccccc1 (stereo unspecified)	> 63.4 µM	33.1 µM	> 56.7 µM	> 100 µM	> 50.9 µM		> 100 µM	49.5 µM	
O/N=C1/C(=C/c2ccc3c(c2)OCO3)CCCC1C(NO)c1ccc2c(c1)OCO2 (stereo unspecified)	62 µM	47.3 µM	87.7 µM	60.7 µM	34.6 µM		51.4 µM	98.8 µM	
O=C(Nc1ccc([As](=O)(O)O)cc1)Nc1cccc(Cl)c1Cl									TGI (MDA-N): > 100 µM
COc1cc(C(O)CCBr)c(OC)cc1C (stereo unspecified)									TGI (MDA-N): > 20.9 µM
COC(=O)NC(=O)c1cn(C2OC(CO)C(O)C2O)c(=O)[nH]c1=O (stereo unspecified)	> 100 µM		> 100 µM		> 100 µM		> 100 µM	> 100 µM	
C=C(C)[C@@H]1CC[C@]2(C)CC[C@]3(C)[C@H](CC[C@@H]4[C@@]5(C)CC[C@H](O)C(C)(C)[C@@H]5CC[C@]43C)[C@@H]12	> 100 µM	> 100 µM		> 100 µM	> 100 µM		> 100 µM	> 100 µM	TGI (MDA-N): > 100 µM
CN(Cc1ccccc1)C(=NC#N)N(Cc1ccccc1)Cc1ccccc1	54.4 µM	41.8 µM	77.1 µM		56.2 µM		70.2 µM	> 100 µM	TGI (MDA-N): 39.6 µM
Cc1cc(CC(=O)NCCO)n(CCO)c(=O)c1	> 100 µM	> 100 µM	> 100 µM	> 100 µM		> 100 µM	> 100 µM	> 100 µM	
CC1=C(C(=O)Nc2cc(=O)n(C)c(=O)n2C)C(c2ccco2)C(C(=O)Nc2cc(=O)n(C)c(=O)n2C)=C(C)N1	> 100 µM		> 100 µM	> 100 µM	> 100 µM	> 100 µM	> 100 µM	> 100 µM	
Cc1c2ccncc2c(C)c2c1[nH]c1ccc(OC(C)C)cc12	3.42 µM	2.07 µM	6.05 µM	3.24 µM	2.59 µM		2.1 µM	3.13 µM	
